The values that follow come from US12062422B2, “System, method and computer-accessible medium for use of heavy water as a probe for imaging metabolic activities” (The Trustees of Columbia University in the City of New York, priority 2018, dated 2024).

The test system of one data set is C. elegans. The data set is described as follows: Toxicity of D2O on C. elegans (lethality, sterility, brood size, gonad development). The class given is in vivo. The method, then: C. elegans wild type (e.g., N2) and mutant strains were maintained at 20° C. using nematode growth media (“NGM”) and E. coli strain OP50 as a food source. (See. e.g., Reference 61). Different concentrations of D2O were added to replace H2O in NGM. E. coli OP50 were seeded on D2O-containing NGM plates and grown for 24 hours; worms were then placed at different ages onto those plates for various amount of time. To determine the toxicity of D2O, eggs were prepared using hypochlorite, which made the eggshell porous and permeable to D2O, placed them onto plates containing different concentration of D2O, and counted the number of eggs that could not hatch into normal moving larva. Fourth stage larva were placed onto those plates and counted how many animals became sterile and determined the brood size by counting the total number of hatch larvae from the all the eggs laid by one animal. Three replicates were performed.
(§1) FIGS. 10A-10E show exemplary graphs and images that illustrate toxicity of D2O on cells and C. elegans. […] Three replicates were performed. Mean and s.d. were shown. […] D-labeled OP50 refers to overnight grown culture of E. coli OP50 that were seeded onto the D2O-containing NGM plates 24 hours before the experiment; non-labeled OP50 refers to the experimental setup, in which bacteria were killed by UV after being placed onto the D2O plates and thus was not labeled by deuterium. Each group has 50 worms, and three replicates were made. Mean and s.d. were shown.
50 worms were used for each treatment, and […] replicates were made. Mean and s.d. were shown. […] Scale bar=20 μm.

The conditions of data set [1]: mouse, in vivo; cited from earlier work.
Data set [2] has as its system HeLa cells. Briefly: CellTiter-Glo Luminescent Cell Viability Assay, cellular toxicity of D2O. The settings on record: medium containing D2O. It counts as cell-based. The protocol:
To determine cellular toxicity, HeLa cells and COS-7 cells were first seeded in […] plates at about 500 per cm^2 and grown overnight; the culture was then changed to DMEM containing different concentration (e.g., 0% to 100%) of D2O for about 48 hours. The viability of cell was accessed using the CellTiter-Glo® Luminescent Cell Viability Assay (e.g., Promega) according to the manufacturer's protocol. Cells cultured in pure DMEM medium were used as control and wells containing only medium without cells for background luminescence. Viability was calculated using the background-corrected […] as follows: Viability (%)=Absorbance of experiment well/Absorbance of control well×100%. Three replicates were performed.
as §1
(ATP-based viability assays read luminescence as a measure of living cells.)

For data set [3], the system named is HeLa cells. Briefly: SRS imaging of lipid droplets in HeLa cells, D-labeled fatty acids versus D2O. The class given is cell-based. Particulars: for CDL signal distribution, lipid droplets: 10 μM D-labeled fatty acid, 6 hours. The method, then: For live-cell imaging, HeLa and COS-7 cells were seeded onto a glass-bottom dish (e.g., MatTek) and grown for 6 to 8 hours in regular DMEM before the medium was changed to DMEM containing 70% D2O. Cells were then grown for different periods of time before being placed onto the stage for SRS imaging. When treating cells with D-labeled fatty acids, they were first reacted with sodium hydroxide and then coupled to bovine serum albumin (“BSA”) in about 2:1 molar ratio to make 2 mM stock solution. Those stock solutions were then added to the medium to reach the final working concentration (e.g., 10 μM).
FIGS. 4A-4E illustrate the exemplary DO-SRS visualizes de novo lipogenesis in cultured cells and in C. elegans. […] The number of lipid droplets formed in the three conditions were quantified (mean±s.d.; N=5 for D-OA, 15 for D-PA, and 8 for D2O; double asterisks indicate p<0.01 in an unpaired t-test). CHL signal for D2O treatment confirmed the presence of few lipid droplets. […] Live bacteria were labeled by deuterium (element 405), and killed bacteria were not labeled (element 410). […] E. coli OP50 were seeded onto the D2O plates 24 hours before the experiments. Scale bar=20 μm. […] CDL mean intensity was plotted. For all C. elegans experiments, at least 8 animals were imaged for each condition to calculate mean intensity; mean±s.d. of the mean intensity was shown.

For data set [4] the following is noted: in vivo; cited from earlier work.
The subject of another data set is mice. Briefly: Injection of D-PA into mice, SRS imaging of CDL signal. The class given is in vivo. Particulars: intraperitoneal bolus injection of 96 μmol. The protocol:
To inject D-labeled palmitic acids (“D-Pas”) intravenously, mice were anesthetized by isoflurane, and one of the carotid arteries was cannulated for the implantation of a catheter. A syringe filled with 4 mM D-PA dissolved in mammalian Ringer's solution was then connected with the implanted catheter, and D-PA solution was perfused at 0.001 ml/min using a syringe pump (e.g., AL-1000, WPI). The administration lasted for 8 hours every day for three consecutive days before the mice were sacrificed and their organs were harvested, fixed, sectioned, and imaged by SRS. To inject D-PA intraperitoneally, 0.16 ml of 600 mM D-PA emulsion was injected into the lower right side of abdomen according to a previous method. (See, e.g., Reference 64). 17 hours later, the mice were sacrificed and their tissues were collected and imaged.
FIGS. 13A-13C show exemplary images that illustrate imaging de novo biosynthesis in various mouse organs. […] Lipid-rich sebaceous glands and adipose tissues were harvested from adult mice that drank 25% D2O for 8 and 15 days, respectively. Myelinated axon fibers of internal capsule were harvested from P11 mouse pups that were fed on milk produced by mother mice drinking 25% D2O for 6 days before imaging. […] Tissues were harvested, fixed, and imaged 17 hours after the injection. […] Scale bar=[…].

The subject of another data set is endoplasmic reticulum. Particulars: approximately 200 μM; cited from earlier work.
The test system of data set [5] is HeLa cells. Briefly: Raman spectra of D2O-treated HeLa cells with protein or lipid synthesis inhibitors. The class given is cell-based. Particulars: 24 hours. The protocol:
For inhibitor treatments, cells were first grown in glass bottom dishes with DMEM made of H2O overnight, and then the medium was changed to 70% D2O DMEM containing either 10 nM fatty acid synthase inhibitor TVB-3166 (e.g., Sigma CAS 1533438-83-3) or 1 μM protein synthesis inhibitor anisomycin (e.g., Sigma CAS 22862-76-6). Cells were then cultured for 24 hours, imaged by SRS microscopy, and fixed by 4% paraformaldehyde for spontaneous Raman spectroscopy.
Cells grown in DMEM made of 100% H2O were used as control.

For `[2H]O[2H]` [D2O, deuterium oxide], in the data set on C. elegans (60% D2O, animals developed from L4 to adults on D2O plates), the gonad development entry is given as “gonad developed normally”. For the same compound, in the data set with C. elegans (80% D2O), the gonad development entry is “gonad development was disrupted” and the “proliferation of the germ cells” value was “appeared to be affected”. In the data set with C. elegans (C. elegans), the “D2O concentration with no observable toxicity and no effect on cell division” value is less than 60%. In the data set with C. elegans (in vivo), the embryo formation result was “normal embryos were formed” and the “embryo formation in the uterus” value is given as “no embryos were formed”. Also, in data set [1], the “D2O enrichment that did not cause any effect on physiological processes” value is given as “below 20%”. Also, the “D2O concentration above which toxicity arises” value in the data set with HeLa cells [2] is “exceeded 80%”. In the data set on HeLa cells [3] (70% D2O, 24 hours), the “lipid droplets in CDL and CHL channels” value is “very few lipid droplets”. In addition, in data set [4], the adverse symptoms entry is given as “does not cause any adverse symptoms” and the body water enrichment result was “approximately 2%”.

Regarding `[2H]OC(=O)C([2H])([2H])C([2H])([2H])C([2H])([2H])C([2H])([2H])C([2H])([2H])C([2H])([2H])C([2H])([2H])/C([2H])=C(/[2H])C([2H])([2H])C([2H])([2H])C([2H])([2H])C([2H])([2H])C([2H])([2H])C([2H])([2H])C([2H])([2H])C([2H])([2H])[2H]` [D-OA, D34-oleic acids], the “number of lipid droplets, comparison” value in the data set with HeLa cells [3] (10 μM) is “remarkably more lipid droplets than D-PA”. Further, the “CDL signal distribution, lipid droplets” value in the data set with HeLa cells [3] was “accumulation of CDL signal in lipid droplets”.

As for `[2H]C([2H])([2H])C([2H])([2H])C([2H])([2H])C([2H])([2H])C([2H])([2H])C([2H])([2H])C([2H])([2H])C([2H])([2H])C([2H])([2H])C([2H])([2H])C([2H])([2H])C([2H])([2H])C([2H])([2H])C([2H])([2H])C([2H])([2H])C(=O)O` [D-PA, D31-palmitic acids], in the data set with mice, the “CDL signal in pancreas” value is given as “accumulation of CDL signal in the ER membrane of pancreatic cells”. Also, in the data set with HeLa cells [3], the “CDL signal distribution, lipid droplets” value is on record as “accumulation of CDL signal in lipid droplets”.

Take `CCCCCCCC/C=C\CCCCCCCC(=O)O` [OA, oleic acid]: the “effect on endoplasmic reticulum membrane” value in the data set on endoplasmic reticulum is on record as “not”.

As to `CCCCCCCCCCCCCCCC(=O)O` [PA, palmitic acid], the “effect on endoplasmic reticulum membrane” value in the data set on endoplasmic reticulum is “drove the formation of solid-like microdomain and membrane phase separation in endoplasmic reticulum”.

Consider `COc1ccc(C[C@H]2NC[C@H](O)[C@H]2OC(C)=O)cc1` [anisomycin], for which the “peak of remaining C-D Raman signal” value in the data set on HeLa cells [5] (1 μM anisomycin, 70% D2O DMEM, remaining D-labeled lipid signal) was 2135 cm⁻¹.

In the case of TVB-3166, the “peak of remaining C-D Raman signal” value in the data set with HeLa cells [5] (10 nM TVB-3166, 70% D2O DMEM, remaining D-labeled protein signal) stood at 2185 cm⁻¹.
